Laboratory results reported in patent publication US8846750B2, “Pharmaceutical and food compositions for preventing or treating diabetes or obesity” (Korea Ocean Research and Development Institute, priority 2010, dated 2014).

Assay: Solubility in water
Assay type: physicochemical
Conditions: dissolved in water
Experimental: 10 mg (22 umol) of the lobaric acid obtained in Example 1-2 was dissolved in 3 ml of acetone, and 50 ul of 1M NaHCO3 was added thereto, followed by stirring for 1-2 minutes. The solid precipitated on adding the NaHCO3 was filtered out, immediately after which it was completely concentrated by a rotary evaporator. After completion of the concentration, sodium lobarate (<10 mg) could be obtained as a white solid. Then, in order to remove excess salt from the product to increase the purity, the product was analyzed by reverse phase HPLC using Agilent Eclipse XDB-C18 column (4.6×150 mm, USA). The solvent system used in the analysis was composed of line A and line B which supplied 0.1% formic acid-containing water and 0.1% formic acid-containing acetonitrile, respectively. The elution conditions were as follows: 40% to 50% acetonitrile for 5 min; 50% to 80% acetonitrile for 15 min; and 80% to 90% acetonitrile for 10 min. The final purity was 92.1% (see FIG. 1).

water solubility: water-soluble
SMILES: CCCCCc1c2c(cc(O)c1C(=O)[O-])OC(=O)c1c(cc(OC)cc1C(=O)CCCC)O2.[Na+] [sodium lobarate]
